US11766444B2, “Pharmaceutical composition for preventing or treating degenerative brain disorders including HDL-APOM-S1P as active ingredient” (Kyungpook National University Industry-Academic Cooperation …, priority 2017, dated 2023)

Key:
tau = assay: Tau deposition in brain tissue (AT8 immunofluorescence); type: in vivo, mouse; conditions: APP/PS1 mice, cerebral cortex, vs 9-month-old untreated APP/PS1 mice
Description: (§1) Transgenic mice overexpressing hAPP695swe (APPswe) and presenilin-1M146V (PS1) mutations were used as mouse models of the Alzheimer's disease. These are mouse lines produced by GlaxoSmithKline (Harlow, UK) with the standard technology for C57BL background (Charles River, UK), which double heterozygote mutant mice (APP/PS1 tg mice) were produced by backcrossing APPswe mice with pure C57BL/6 backgrounds and crossing PS1 mice
(§2) After collecting blood from mice, the obtained blood was separated into erythrocytes and plasma by centrifugation. The separated erythrocytes are reacted with 10 uM sphingosine at 37° C. for 1 hour, and then reacted for 1 hour at 37° C. after mixing again with the separated plasma. […]
(§3) After fixing the cerebral (especially cortex) and hippocampus of mice with 4% paraformaldehyde, the immobilized tissues were incubated with 0.5% thioflavin S (Sigma-Aldrich) or anti-20G10 against Aβ42 (mouse, 1:1000), anti-G30 against Aβ40 (rabbit, 1:1000), anti-lba-1 (rabbit, 1:500, Wako), and anti-GFAP (rabbit, 1:500, DAKO), respectively. […] The sites were analyzed using a laser scanning confocal microscope or Olympus BX51 microscope equipped with Fluoview SV1000 imaging software (Olympus FV1000, Japan). Metamorph software (Molecular Devices) was used to quantify the percentage of area of stained area to area of total tissue. […]

astrocytes = assay: Activity of astrocytes (GFAP staining), neuroinflammatory response; type: in vivo, mouse; conditions: APP/PS1 mice, brain tissue, vs untreated APP/PS1 mice
Description: as §1, §2, §3

amyloid-β = assay: Amyloid-β deposition in brain tissue (cerebral cortex), thioflavin S staining and immunofluorescence; type: in vivo, mouse; conditions: APP/PS1 mice, vs 9-month-old untreated APP/PS1 mice
Description: as §1, §2, §3

APP/PS1 mice = assay: Morris water maze (MWM) test; type: in vivo, mouse; conditions: 10 days training, probe trial day 11
Description: as §1
(§4) After collecting blood from mice, the obtained blood was separated into erythrocytes and plasma by centrifugation. The separated erythrocytes are reacted with 10 uM sphingosine at 37° C. for 1 hour, and then reacted for 1 hour at 37° C. after mixing again with the separated plasma. After completion of the reaction, erythrocytes and plasma were separated by centrifugation, and only the plasma was collected again. The plasma thus obtained was loaded with S1P in HDL (HDL-ApoM-S1P loading), which was illustrated in FIG. 1.
The plasma solution thus obtained was intravenously injected 25 μl into mice twice a week for 4 weeks (total 8 times) according to the experimental outline shown in FIG. 2. […]
In order to identify potential effects on learning and memory, Morris water maze (MWM) and fear conditioning experiments were performed according to known methods. […] All experiments were recorded using a charge-coupled device (CCD) camera with video monitor and computer. […]

microglia = assay: Activity of microglia (Iba1 staining), neuroinflammatory response; type: in vivo, mouse; conditions: APP/PS1 mice, brain tissue, vs untreated APP/PS1 mice
Description: as §1, §2, §3

[1] = S1P, ApoM, HDL-S1P and HDL-ApoM levels in plasma of APP/PS1 mice after HDL-ApoM-S1P loading; type: in vivo, mouse; conditions: i.v. 25 μl twice a week for 4 weeks (8 times), vs untreated APP/PS1 mice
Description: as §1, §4
The plasma solution thus obtained was intravenously injected 25 μl into mice twice a week for 4 weeks (total 8 times) according to the experimental outline shown in FIG. 2. As a control group, 3 μM S1P (Avanti) and […] ApoM (Mybiosource, SEQ ID NO: 1) were injected intravenously with 25 μl in mice twice a week for 4 weeks (eight times in total).
To collect blood from mouse models (APP/PS1 tg mice or APP/PS1/ApoM tg mice) and normal control mice (WT), the mice were anesthetized first, and 500 μl to 700 μl of blood were collected in heparin tubes (BD Falcon) by cardiac drawing. Each blood sample was then centrifuged at 1,200 rpm for 5 minutes to separate plasma from the supernatant. This plasma sample was stored at −80° C. before being used for analysis.
60 μl of plasma sample was placed in the ultrafast centrifuge tube, and then the same amount of PBS (Gibco) solution was added to form a layer on the plasma. A high speed centrifuge (HITACHI cp100wx Centrifuge P70AT rotor) was used to centrifuge at 70,000 rpm for 3 hours at 4° C. 60 μl of the lower layer of the sample separated into two layers was transferred into a new ultra-centrifuge tube. […]
Extraction and quantification of S1P was performed in the following manner. […] The dried lipid extract was resuspended in 25 μl of 0.2% Igepal CA-630 (Sigma-Aldrich), and the concentration level of each lipid was quantified by the UPLC system using the column ACQUITY BEH Shield RP18 1.7 μm 2.1×50 mm (186002853) and 0.1% of NH4OH.
Using a commercial ELISA kit (CUSABIO Human ApoM ELISA Kit and Mouse ApoM ELISA Kit), the amount of apolipoprotein M (ApoM) contained in the mouse plasma or HDL fractionated therefrom was quantified according to the manufacturer's protocol. […]

AD patients = conditions: cited from earlier work; for delaying cognitive decline compared to placebo: large-scale clinical trial, one year

CCCCCCCCCCCCC/C=C/[C@@H](O)[C@@H](N)COP(=O)(O)O [S1P, Sphingosine-1-Phosphate]
tau deposition (AT8) in brain tissue (tau): did not show a significant difference
inflammatory activity of astrocytes (astrocytes): no significant difference
Aβ40 deposition in brain tissue (amyloid-β): did not show a significant difference
Aβ42 deposition in brain tissue (amyloid-β): did not show a significant difference
learning and memory (spatial memory formation), MWM (APP/PS1 mice): severe impairment
inflammatory activity of microglia (microglia): no significant difference
level of ApoM in plasma [1]: did not show a difference
level of HDL-ApoM in the HDL fraction [1]: did not show a difference
level of HDL-S1P in the HDL fraction [1]: did not show a difference
level of S1P in plasma [1]: did not show a difference

O=C(O)Cc1ccccc1Nc1c(Cl)cccc1Cl [diclofenac]
index of cognitive decline vs placebo (AD patients; mild to moderate AD patients, diclofenac in combination with misoprostol, after 25 weeks): no significant difference

CCN(CCO)CCCC(C)Nc1ccnc2cc(Cl)ccc12 (centres unmarked) [hydroxychloroquine]
preventing memory degradation (AD patients; 18-month experiment): no protective effect

COc1ccc2cc([C@H](C)C(=O)O)ccc2c1 [naproxen]
delaying cognitive decline compared to placebo (AD patients): not effective

CS(=O)(=O)Nc1ccc([N+](=O)[O-])cc1Oc1ccccc1 [nimesulide]
rate of cognitive change (AD patients; AD patients, small 24-week studies): no significant difference

C[C@]12C=CC(=O)C=C1CC[C@@H]1[C@@H]2C(=O)C[C@@]2(C)[C@H]1CC[C@]2(O)C(=O)CO [prednisone]
cognitive decline, treatment vs placebo groups (AD patients; low doses for one year): no difference

CS(=O)(=O)c1ccc(C2=C(c3ccccc3)C(=O)OC2)cc1 [rofecoxib]
delaying cognitive decline compared to placebo (AD patients): not effective
efficacy in mild to moderate AD patients (AD patients; trial for 1 year): ineffective
